Experiments:
[1] = system: serum uric acid; assay: Phase 2 clinical trial (NCT03934099): serum uric acid concentration in gout patients; format: in vivo, human; conditions: for patients with serum uric acid concentration <4 mg/dL / patients with serum uric acid concentration <5 mg/dL / patients with serum uric acid concentration <6 mg/dL: febuxostat group 40 mg oral
Experimental: A phase 2 clinical trial was conducted to analyze the dosage, TEAEs, and the like when the compound of Formula 1 (1-(3-cyano-1-isopropyl-indol-5-yl)pyrazol-4-carboxylic acid; compound of Example 1) is administered to a gout patient group.
• 1. Written informed consent (signed and dated) provided voluntarily prior to the start of the study. • 2. Male or female aged from 18 to 75 • 3. History or experience of hyperuricemia and gout in accordance with the criteria of the American College of Rheumatology. • 4. Self-reported history of 2 or more gout flare within 12 months prior to screening visit (Visit 1). • 5. Serum uric acid (sUA) levels at Visit 1 of 6.0 mg/dL or more in subjects who were receiving urate lower therapy (ULT) with allopurinol, febuxostat, probenecid, or lesinurad; and sUA levels at Visit 1 of 8.0 mg/dL or more and 12.0 mg/dL or less in subjects who had no history of receiving the ULT or were not receiving the ULT at visit 1. • 6. sUA levels of 8.0 mg/dL or more and 12.0 mg/dL or less at Visit 3. • 7. Body mass index of 42 kg/m^2 or less at screening visit (Visit 1). • 8. Estimated glomerular filtration rate (eGFR) of 60 mL/min/1.73 m^2 or more at screening visit (Visit 1). • 9. Subjects of childbearing potential with a negative pregnancy test result at screening visit (Visit 1). Subjects (female subjects of childbearing potential and male subjects with partners of childbearing potential) consented to use adequate methods of contraception to avoid pregnancy during the study period. • 10. Able to understand the study procedure and relevant risk, and willing to comply with the visit/protocol schedule.
• 1. Presence of secondary hyperuricemia caused by myeloproliferative disorder, organ transplantation, or the like. • 2. Experience of any active acute gout flare within 3 weeks prior to screening visit (Visit 1). • 3. Aspartate aminotransferase or alanine aminotransferase level exceeds 2 times upper limit of normal (ULN) at screening visit (Visit 1). • 4. Creatine kinase level exceeds 2.5 times ULN at screening visit (Visit 1). • 5. Presence of previous hypersensitivity to colchicine. • 6. Patients who have ever prescribed pegloticase within 3 months prior to screening visit (Visit 1). • 7. If a stable dose of drugs (losartan, fibrate, thiazide diuretics, loop diuretics, and acetylsalicylic acid) known to affect sUA levels has not been administered during the past 6 weeks prior to screening visit (Visit 1), acetylsalicylic acid is not allowed to use 325 mg/day or more. • 8. Patients who have ever received systemic corticosteroids for 10 or more consecutive days within 1 month prior to screening visit (Visit 1). • 9. Presence of need or potential availability of systemic immunosuppressive drugs or immunomodulatory therapies (e.g., azathioprine, 6-mercaptopurine, and cyclosporine) • 10. Patients who have received high or moderate doses of cytochrome P450 3A4 inhibitors or P-glycoprotein inhibitors within 14 days prior to screening visit (Visit 1). • 11. History of xanthinuria. • 12. History of rheumatoid arthritis. • 13. Presence of active peptic ulcer disease requiring treatment. • 14. Presence of unstable angina, New York Heart Association class III or IV heart failure, myocardial infarction, stroke, deep vein thrombosis, percutaneous coronary intervention (with or without stent), or coronary artery bypass graft within the past 12 months prior to screening visit (Visit 1); current administration of anticoagulants; or the presence of clinically significant electrocardiogram abnormalities in the investigator's opinion at screening visit (Visit 1). • 15. Presence of uncontrolled hypertension (systolic blood pressure>160 mmHg or diastolic blood pressure>95 mmHg) at screening visit (Visit 1). • 16. History of myositis/myopathy, rhabdomyolysis, Stevens-Johnson syndrome, or toxic epidermal necrolysis. • 17. […]

[2] = system: serum uric acid; conditions: previous results, gout patients; cited from earlier work
[3] = febuxostat 40 mg, mild renal function impairment, 12 weeks
[4] = febuxostat 40 mg, normal renal function, 12 weeks
[5] = febuxostat 40 mg, one patient in moderate renal function impairment group, 12 weeks

Cc1nc(-c2ccc(OCC(C)C)c(C#N)c2)sc1C(=O)O [Febuxostat, febuxostat, reference compound]
patients adjusted to serum uric acid <5.0 mg/dL [1, 3]: 33%
patients adjusted to serum uric acid <6.0 mg/dL [1, 3]: 67%
patients adjusted to serum uric acid <5.0 mg/dL [1, 4]: 20%
patients adjusted to serum uric acid <6.0 mg/dL [1, 4]: 60%
adjustment of serum uric acid to <5.0 mg/dL [1, 5]: not adjusted to less than 5.0 mg/dL
adjustment of serum uric acid to <6.0 mg/dL [1, 5]: not adjusted to less than 6.0 mg/dl
patients with serum uric acid concentration <4 mg/dL ([1]; 12 weeks): 0% (0/13 people)
patients with serum uric acid concentration <5 mg/dL ([1]; 12 weeks): 23% (3/13 people)
patients with serum uric acid concentration <6 mg/dL ([1]; 12 weeks): 54% (7/13 people)
patients with serum uric acid concentration <4 mg/dL ([1]; 12 weeks, listed as febuxostat): 0%
patients with serum uric acid concentration <5 mg/dL ([1]; 12 weeks, listed as febuxostat): 23%
patients with serum uric acid concentration <6 mg/dL ([1]; 12 weeks, listed as febuxostat): 54%
degree of reduction in serum uric acid ([1]; febuxostat group 40 mg, FIG. 3): 41.4%

Oc1ncnc2[nH]ncc12 [allopurinol]
patients in the receiving group with serum uric acid concentration of less than 6 mg/dL [2]: about 40%

— patent US20240415814A1, “PHARMACEUTICAL COMPOSITION COMPRISING 1-(3-CYANO-1-ISOPROPYL-INDOL-5-YL)PYRAZOLE-4-CARBOXYLIC ACID” (LG CHEM, LTD., priority 2021, published 2024)
